Patent US8993509B2, “Method for treatment of cachexia by administering inhibitors of adipose triglyceride lipase expression or activity” (priority 2010, dated 2015)

Columns and labels:
iPLA2γ = target: T1, iPLA2γ (Homo sapiens, UniProt Q9NP80); details: cited from earlier work
T1 sequence (Q9NP80 1-782): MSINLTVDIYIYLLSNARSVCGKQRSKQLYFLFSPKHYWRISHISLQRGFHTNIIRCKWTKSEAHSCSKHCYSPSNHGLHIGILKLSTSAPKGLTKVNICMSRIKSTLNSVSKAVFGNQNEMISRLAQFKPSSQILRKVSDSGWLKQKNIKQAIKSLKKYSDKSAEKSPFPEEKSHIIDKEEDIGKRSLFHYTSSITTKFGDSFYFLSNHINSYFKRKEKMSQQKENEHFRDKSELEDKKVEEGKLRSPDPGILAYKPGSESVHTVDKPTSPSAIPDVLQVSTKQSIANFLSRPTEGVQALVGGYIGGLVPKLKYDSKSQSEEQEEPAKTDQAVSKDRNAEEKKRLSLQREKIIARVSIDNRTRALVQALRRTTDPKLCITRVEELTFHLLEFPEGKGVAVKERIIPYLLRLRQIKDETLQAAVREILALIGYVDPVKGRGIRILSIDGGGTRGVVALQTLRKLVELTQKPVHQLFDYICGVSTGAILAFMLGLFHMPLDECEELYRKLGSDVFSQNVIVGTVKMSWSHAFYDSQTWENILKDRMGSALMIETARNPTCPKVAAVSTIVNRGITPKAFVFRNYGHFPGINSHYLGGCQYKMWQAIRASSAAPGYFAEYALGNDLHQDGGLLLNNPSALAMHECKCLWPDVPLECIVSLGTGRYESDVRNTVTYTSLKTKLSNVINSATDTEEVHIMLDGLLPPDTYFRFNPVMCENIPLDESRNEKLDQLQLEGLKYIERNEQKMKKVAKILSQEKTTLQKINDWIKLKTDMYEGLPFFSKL

ATGL [1] = target: T2, ATGL (Homo sapiens, UniProt Q96AD5); details: expressed ATGL or native ATGL in hepatocytes; cited from earlier work
T2 sequence (Q96AD5 1-504): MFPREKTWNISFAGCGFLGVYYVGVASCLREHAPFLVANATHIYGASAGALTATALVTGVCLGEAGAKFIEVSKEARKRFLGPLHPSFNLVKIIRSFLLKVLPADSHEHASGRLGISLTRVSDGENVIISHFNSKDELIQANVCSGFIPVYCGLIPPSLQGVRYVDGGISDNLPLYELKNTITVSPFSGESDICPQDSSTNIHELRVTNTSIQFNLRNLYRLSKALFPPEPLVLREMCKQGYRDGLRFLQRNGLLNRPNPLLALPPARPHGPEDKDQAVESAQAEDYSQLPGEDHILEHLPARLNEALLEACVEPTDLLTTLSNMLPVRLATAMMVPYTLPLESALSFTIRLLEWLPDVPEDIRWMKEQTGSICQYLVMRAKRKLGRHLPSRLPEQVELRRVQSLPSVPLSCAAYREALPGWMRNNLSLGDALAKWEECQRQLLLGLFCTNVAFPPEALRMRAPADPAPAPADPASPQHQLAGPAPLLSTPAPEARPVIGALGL

iPLA2β = target: T3, iPLA2β (Homo sapiens, UniProt O60733); details: cited from earlier work
T3 sequence (O60733 1-806): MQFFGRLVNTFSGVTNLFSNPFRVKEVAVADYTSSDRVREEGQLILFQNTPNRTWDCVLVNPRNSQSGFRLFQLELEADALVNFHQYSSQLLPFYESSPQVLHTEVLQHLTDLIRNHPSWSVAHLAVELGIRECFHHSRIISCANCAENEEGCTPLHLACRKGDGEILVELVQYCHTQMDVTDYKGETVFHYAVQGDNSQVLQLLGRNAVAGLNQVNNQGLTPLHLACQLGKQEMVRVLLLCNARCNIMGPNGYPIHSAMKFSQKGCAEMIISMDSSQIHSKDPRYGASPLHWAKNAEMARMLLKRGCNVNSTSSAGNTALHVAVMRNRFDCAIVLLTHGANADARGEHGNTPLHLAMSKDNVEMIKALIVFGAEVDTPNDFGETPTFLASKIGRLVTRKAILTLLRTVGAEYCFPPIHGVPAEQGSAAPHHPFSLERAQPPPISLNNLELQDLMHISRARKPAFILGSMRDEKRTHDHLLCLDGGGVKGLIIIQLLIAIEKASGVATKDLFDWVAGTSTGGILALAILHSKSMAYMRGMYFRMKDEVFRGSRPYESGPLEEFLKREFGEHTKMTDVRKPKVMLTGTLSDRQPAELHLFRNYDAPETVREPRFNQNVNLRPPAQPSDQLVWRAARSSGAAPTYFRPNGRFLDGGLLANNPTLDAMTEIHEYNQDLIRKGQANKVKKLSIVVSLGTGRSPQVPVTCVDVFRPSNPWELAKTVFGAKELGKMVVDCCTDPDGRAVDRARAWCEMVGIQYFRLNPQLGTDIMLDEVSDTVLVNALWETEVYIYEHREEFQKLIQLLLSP

ATGL [2] = target: T4, ATGL (Mus musculus, UniProt Q8BJ56); assay: Lipase assay (triglyceride hydrolase assay) with candidate inhibitors; type: biochemical; details: versus control (DMSO), FIG. 9
T4 construct: The lipid-free infranatant (cytosolic fraction) was collected and, used for triacyl-glycerol (TG) hydrolase assays; from tissue; host or cells: mouse white adipose tissue, cytosolic fraction (100,000 g infranatant)
T4 sequence (Q8BJ56 1-486): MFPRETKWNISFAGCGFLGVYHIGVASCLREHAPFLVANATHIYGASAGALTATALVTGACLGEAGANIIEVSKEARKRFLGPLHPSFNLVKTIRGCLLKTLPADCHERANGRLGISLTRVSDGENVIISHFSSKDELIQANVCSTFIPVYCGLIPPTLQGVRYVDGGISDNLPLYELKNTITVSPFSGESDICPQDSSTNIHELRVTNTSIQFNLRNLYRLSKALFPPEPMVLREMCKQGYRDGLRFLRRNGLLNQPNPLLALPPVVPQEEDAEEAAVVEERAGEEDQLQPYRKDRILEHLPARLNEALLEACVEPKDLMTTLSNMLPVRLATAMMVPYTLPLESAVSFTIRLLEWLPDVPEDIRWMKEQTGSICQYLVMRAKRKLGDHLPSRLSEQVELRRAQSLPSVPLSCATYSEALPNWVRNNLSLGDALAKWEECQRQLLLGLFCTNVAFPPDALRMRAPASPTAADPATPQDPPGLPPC
Experimental: Mesenteric, retroperitoneal, omental and, gonadal white adipose tissues (WAT) of wild-type (wt), Adipose Tri-Glyceride Lipase-knockout (ATGL-ko) and, Hormone Sensitive Lipase-knockout (HSL-ko) mice were removed surgically and, washed in phosphate-buffered saline (PBS) containing 1 mM ethylenediaminetetraacetic-acid (EDTA). The tissue was homogenized in lysis buffer (0.25 M sucrose, 1 mM EDTA, 1 mM dithiothreitol, 20 μg/ml leupeptin, 2 μg/ml antipain, 1 μg/ml pepstatin, pH 7.0) using a Magna Lyser (Roche diagnostics GmbH, Mannheim, Germany). The WAT lysate was centrifuged at 100,000 g for 1 hour (h) at 4° C. The lipid-free infranatant (cytosolic fraction) was collected and, used for triacyl-glycerol (TG) hydrolase assays. The substrate for the measurement of lipase activity containing triolein and [9, 10-3H(N)-triolein] (NEN Life Science Products, Boston, Mass.) as radioactive tracer was emulsified with phosphatidylcholine/phosphatidylinositol using a conventional ultrasound sonicator. The cytosolic fractions supplemented with or, without a specific inhibitor for HSL were incubated at 37° C. for 60 min under constant shaking. The reaction was terminated by addition of 3.25 ml methanol/chloroform/heptane (10:9:7) and, 1 ml of 0.1 M potassium carbonate and, 0.1 M boric acid (pH 10.5). After centrifugation at 800 g for 20 minutes (min) the radioactivity in 1 ml of the upper phase was determined by liquid scintillation counting in a LS 6500 Multi-Purpose Scintillation Counter from Beckman Coulter Inc. (Fullerton, Calif.).
For determination of lipase activity 0.1 ml of cytosolic extracts and 0.1 ml substrate are incubated in a water bath at 37° C. for 60 min. The reaction is terminated by adding 3.25 ml of methanol/chloroform/heptane (10:9:7) and 1 ml of 0.1 M potassium carbonate, 0.1 M boric acid, pH 10.5. After centrifugation (800 g, 20 min) the radioactivity in 1 ml of the upper phase is determined by liquid scintillation counting. Neutral lipase activity is measured in 50 mM potassium phosphate buffer, pH 7.0 and 2.5% defatted BSA. The substrate for neutral TG lipase activity contained 33 nmol triolein/assay with [9,10-^3H(N)]-triolein (40.000 cpm/nmol, NEN Life Science Products) as radioactive tracer for COS-7 cells and 167 nmol/assay for 3T3-L1 adipocytes (7300 cpm/nmol). The substrates for cholesteryl esterase and retinyl esterase activity contained 10 nmol/assay of cholesteryl oleate or retinyl palmitate and the corresponding tracers cholesteryl [9,10-^3H]-oleate or retinyl [9,10-^3H(N)]-palmitate (50.000 cpm/nmol). For determination of phospholipase activity in cytosolic extracts the substrate contained 20 nmol/assay phosphatidylcholine and [dipalmitoyl-1-^14C]-phosphatidylcholine (12.000 cpm/nmol). […]

SMILES	inhibition of iPLA2γ (iPLA2γ)	ATGL inhibition activity (ATGL [1])	inhibition of iPLA2β (iPLA2β)	inhibition of ATGL (ATGL activity, % control) (ATGL [2])
O=C1O/C(=C/Br)CC[C@@H]1c1cccc2ccccc12 [(R)-Bromoenol lactone]	inhibits	ATGL inhibition activity	inhibits	
COC(=O)C(O)(c1cc(C)c(O)c(C)c1)C(F)(F)F (stereo not shown) [Compound 3]				inhibit ATGL
Oc1ccc(/C=N/N2CCN(c3ccccc3)CC2)cc1O [Compound 4]				largest degree of inhibition
CN(C)/N=C/c1ccccc1OC(=O)c1cccnc1 [Compound 7]				inhibit ATGL
CCOC(=O)c1nn(-c2ccc(OCC)cc2)cc1O [Compound 9]				inhibit ATGL
